# Test results published in PMC12661054, “The CIP2A-TOPBP1 axis facilitates mitotic DNA repair via MiDAS and MMEJ” (Nature Communications, 2025).
# “Also recorded” adds a separate entry of the source.
# Tests used:
# Assay type in all cases: cell-based, human
# RPE1 p53-/- cells = experiment: Immunofluorescence foci, RPE1 p53-/- cells; conditions: RPE1 p53-/- cells treated with aphidicolin followed by acute CDK1i
# Experimental: Immunofluorescence microscopy […] For detection of micronuclei, cells were fixed in 250 mM HEPES pH 7.5, 0.1% Triton X-100, 4% PFA in PBS for 20 minutes at 4 °C. Coverslips were then incubated for 5 min in 1x PBS with three buffer changes followed by incubation with 0.5% Triton X-100/ PBS for 10 min at room temperature. Coverslips were then incubated for 5 minutes in 1x PBS with three buffer changes. For EdU detection coverslips were transferred to a humidified chamber and incubated in EdU click it reaction buffer containing Alexafluor 488 azide for 1 h at room temperature followed by three 5 min washes in 1x PBS. Coverslips were then incubated in 5% FBS/PBS for 1 h followed by overnight incubation at 4 °C with primary antibody diluted in 5% FBS/PBS. Coverslips were then washed 3 × 5 min in 1x PBS followed by 1 h incubation at room temperature in 5% FBS/PBS containing secondary antibodies. Coverslips were incubated a further three times for 5 min in 1x PBS. Coverslips were then mounted on superfrost microscopy slides using Vectashield mounting medium with DAPI (Vector laboratories, […]). […] Cells were fixed in […] for 15 min at room temperature, followed by 3 × 5 min washes in 1xPBS. Coverslips were then incubated in 0.5% Triton-X/PBS for 10 min at room temperature, followed by a further 3 × 5 min 1xPBS washes. Coverslips were then incubated in blocking buffer (2% BSA, 0.05% Tween-20) for 1 h at room temperature, followed by incubation in respective primary antibodies overnight at 4 °C. Coverslips were then washed 3x for 5 min in 1x PBS followed by incubation for 1 h at room temperature in blocking buffer containing secondary antibodies. Coverslips were then washed 3x for 5 min in 1x PBS and mounted with Vectashield PLUS antifade mounting medium with DAPI (Vector laboratories, […]). Images were acquired using a Zeiss Axio Observer Z1 MarianasTM Microscope attached with a CSU-SoRa spinning disk unit using either a Photometrics Kinetix sCMOS camera built by Intelligent Imaging Innovations (3i) or a Zeiss Axio Observer Z1 MarianasTM Microscope attached with a CSUX1 spinning disk unit and Hamamatsu Flash 4 CMOS camera built by Intelligent Imaging Innovations (3i) or using an Opera Phenix Plus high content imaging system (Revvity). In each case 405, 488 and 640 laser lines were used in addition to DAPI, GFP/FITC, iRFP/CY5 emission filters. Quantification was carried out using FIJI (ImageJ, RRID:SCR_003070) software, CellProfiler (Broad Institute), Harmony (Revvity) or using […] Microsystems). Images of mitotic cells were analysed in 3D with maximum Z projections used for representative images in the manuscript to assist with visualisation.For interphase cells 2D images were analysed.
# [1] = system: eGFP-TOPBP1 interaction with SLX4, MUS81, ERCC1, BTR complex; experiment: eGFP-TOPBP1 co-immunoprecipitation, mitotic HEK293TN cells; conditions: eGFP-TOPBP1 Co-IP; RO-3306 7 µM, 30 min
# Experimental: (§1) GFP-Trap® Agarose Co-immunoprecipitation
# (§2) HEK293TN cells were seeded to be ~25–30% confluence the next day in a 15 cm tissue culture dish. The following day cells were transfected using Lipofectamine 2000 transfection reagent (Thermo Fisher Scientific) with 24 µg of plasmid DNA encoding eGFP-SLX4 or eGFP-TOPBP1 expression cassettes following manufacturer’s instructions.
# Forty eight hours post transfection cells were harvested after treatments as described, snap frozen on dry ice and stored at −80 °C. Cell pellets were removed from −80 storage and thawed on ice in 2.4 ml IP buffer 1 (100 mM NaCl, 0.2% Igepal CA-630, 1 mM MgCl2, 10% glycerol, 5 mM NaF, 50 mM Tris-HCl, pH 7.5), supplemented with EDTA Free […] protease inhibitor (Sigma Aldrich) and 25 U ml−1 Benzonase (Novagen). Cells were resuspended and rotated at 4 °C for 90 min. Benzonase was then inhibited by adjusted NaCl concentration to 200 mM and with the addition of 2 mM EDTA, followed by rotation for a further 30 min at 4 °C on a carousel. The cell suspension was then centrifuged at 16,000 x g for 25 min at 4 °C. In parallel, 20 µl agarose binding control bead (bab, Chromotek) slurry was washed with 500 µl IP buffer 2 (200 mM NaCl, 0.2% Igepal CA-630, 1 mM MgCl2, 10% glycerol, 5 mM NaF, 2 mM EDTA, 50 mM Tris-HCl, pH 7.5). The binding control beads were then centrifuged at 2500 x g for 2 min. The supernatant was then removed and the IP2 wash was repeated twice more. Cell lysates (soluble supernatant) were then collected added to the agarose binding control beads in 15 ml centrifuge tubes and subsequently rotated at 4 °C on carousel for 60 min. The agarose binding control beads were then pelleted by centrifugation at 2000 x g for 2 min, the supernatant was then transferred to a new tube. BCA assay was then carried out to determine the protein concentration of the pre-cleared cell lysate. […] The supernatant, now containing eluted material, was transferred to a new 1.5 ml microcentrifuge tube ready for downstream western blot analysis.
# [2] = system: eGFP-SLX4 interaction with TOPBP1, MUS81, ERCC1; experiment: eGFP-SLX4 co-immunoprecipitation, mitotic HEK293TN cells; conditions: eGFP-SLX4 Co-IP; RO-3306 7 µM, 30 min, nocodazole-synchronised
# Experimental: as §1, §2
# (§3) Forty eight hours post transfection cells were harvested after treatments as described, snap frozen on dry ice and stored at −80 °C. Cell pellets were removed from −80 storage and thawed on ice in 2.4 ml IP buffer 1 (100 mM NaCl, 0.2% Igepal CA-630, 1 mM MgCl2, 10% glycerol, 5 mM NaF, 50 mM Tris-HCl, pH 7.5), supplemented with EDTA Free […] protease inhibitor (Sigma Aldrich) and 25 U ml−1 Benzonase (Novagen). Cells were resuspended and rotated at 4 °C for 90 min. Benzonase was then inhibited by adjusted NaCl concentration to 200 mM and with the addition of 2 mM EDTA, followed by rotation for a further 30 min at 4 °C on a carousel. The cell suspension was then centrifuged at 16,000 x g for 25 min at 4 °C. […] The supernatant, now containing eluted material, was transferred to a new 1.5 ml microcentrifuge tube ready for downstream western blot analysis.
# SLX4 Thr1260 = SLX4 Thr1260 phosphorylation in mitotic HEK293TN cells (western blot); conditions: acute CDK1i (RO-3306 7 µM, 30 min) after 18 h 100 ng/ml nocodazole; eGFP-SLX4 or eGFP-TOPBP1 Co-IP
# Experimental: as §1, §2, §3
structure (smiles),measurement,setting,value
O=C1NC(=NCc2cccs2)S/C1=C\c1ccc2ncccc2c1 [CDK1i],MUS81 and TOPBP1 foci formation in prometaphase,RPE1 p53-/- cells,impairment of MUS81 and TOPBP1 foci formation in prometaphase cells
same,interaction between TOPBP1 and MUS81 or ERCC1,[1],disrupted the interaction between TOPBP1 and MUS81 or ERCC1
same,interaction between TOPBP1 and components of the BTR complex,[1],did not affect the interaction between TOPBP1 and components of the BTR complex
same,interaction between eGFP-TOPBP1 and SLX4,[1],hindered the interaction between eGFP-TOPBP1 and SLX4
same,SLX4 Thr1260 phosphorylation and binding of TOPBP1,[2],reduced SLX4 phosphorylation of Thr1260 and binding of TOPBP1
same,eGFP-SLX4 interaction with MUS81 or ERCC1,[2],did not affect its interaction with MUS81 or ERCC1
same,SLX4 Thr1260 phosphorylation,SLX4 Thr1260,reduced; also recorded: marked reduction in SLX4 Thr1260 phosphorylation
